# Target: NACHT, LRR and PYD domains-containing protein 3 (Homo sapiens, UniProt Q96P20)
# Experiment: Evaluation of NLRP3 Inflammasome Inhibitory Activity Assay
# Experimental: The NLRP3 inflammasome inhibitory activity of test compounds were evaluated on the basis of the inhibitory activity of the IL-1β production in THP1-Null cells (Product Number: thp-null, InvivoGen). […] The supernatant of the culture was removed, and thereto was added media for assay (25 μL/well) containing 1 μg/mL Lipopolysaccharides (Product Number: L2654, Sigma-Aldrich (registered trademark)). […] The supernatant of the culture was removed. […] A solution containing a test compound (20 μL/well) was added to test compound-setting wells. […] The supernatant of the culture was cryonically stored (set at −20° C.) until measurement of IL-1β.
# NACHT, LRR and PYD domains-containing protein 3, sequence (Q96P20 whole entry, the tested form may be a part): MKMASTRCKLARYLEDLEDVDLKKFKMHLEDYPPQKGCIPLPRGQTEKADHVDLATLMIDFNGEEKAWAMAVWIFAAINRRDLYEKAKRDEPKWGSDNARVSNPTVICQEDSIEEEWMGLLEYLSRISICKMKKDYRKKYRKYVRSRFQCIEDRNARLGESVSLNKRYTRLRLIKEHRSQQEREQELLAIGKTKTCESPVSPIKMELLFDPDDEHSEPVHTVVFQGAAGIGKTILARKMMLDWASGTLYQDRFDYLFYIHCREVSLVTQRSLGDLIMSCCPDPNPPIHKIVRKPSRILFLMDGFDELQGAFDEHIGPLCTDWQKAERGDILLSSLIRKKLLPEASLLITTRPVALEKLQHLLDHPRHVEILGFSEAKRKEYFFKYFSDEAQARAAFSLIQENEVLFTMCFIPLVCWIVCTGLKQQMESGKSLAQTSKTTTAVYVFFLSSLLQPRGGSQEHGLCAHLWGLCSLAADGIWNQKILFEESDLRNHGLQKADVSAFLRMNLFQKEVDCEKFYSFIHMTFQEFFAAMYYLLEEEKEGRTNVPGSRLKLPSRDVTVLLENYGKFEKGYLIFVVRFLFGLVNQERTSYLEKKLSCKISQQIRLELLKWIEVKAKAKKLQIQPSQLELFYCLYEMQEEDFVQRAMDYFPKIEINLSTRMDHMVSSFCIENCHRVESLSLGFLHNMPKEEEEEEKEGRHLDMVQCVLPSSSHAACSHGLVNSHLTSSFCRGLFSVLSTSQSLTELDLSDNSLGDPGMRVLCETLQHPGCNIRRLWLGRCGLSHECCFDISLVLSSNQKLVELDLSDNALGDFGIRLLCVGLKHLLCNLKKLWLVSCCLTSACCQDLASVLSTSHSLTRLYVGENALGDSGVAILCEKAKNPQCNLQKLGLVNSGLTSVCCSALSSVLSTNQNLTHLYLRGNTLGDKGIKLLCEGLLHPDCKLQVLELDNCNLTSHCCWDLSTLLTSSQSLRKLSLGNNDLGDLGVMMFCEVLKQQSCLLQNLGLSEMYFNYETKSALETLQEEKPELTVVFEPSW
row,Structure (SMILES),IC50 [nM]
1,"COC1(C)CN(c2nc3nn(-c4c(C)cc(Br)cc4C)cc3c(=O)[nH]2)C1 [US20240287079, Example 203]",27
2,"Cc1cc(Br)cc(C)c1-n1cc2c(=O)[nH]c(N3CC4(COC4)C3)nc2n1 [US20240287079, Example 204]",28
3,"COC1(C)CN(c2nc3nn(-c4c(C)cc(Br)cc4C)cc3c(=O)n2C)C1 [US20240287079, Example 212]",130
4,"Cc1cc(Br)cc(C)c1-n1cc2c(=O)[nH]c(N3CCOC[C@H]3C)nc2n1 [US20240287079, Example 213]",6.8
5,"Cc1cc(Br)cc(C)c1-n1cc2c(=O)[nH]c(N3CCO[C@@H](C)C3)nc2n1 [US20240287079, Example 214]",19
6,"Cc1cc(Br)cc(C)c1-n1cc2c(=O)[nH]c(N3CCO[C@H](C)C3)nc2n1 [US20240287079, Example 215]",17
7,"COC1COCCN(c2nc3nn(-c4c(C)cc(Br)cc4C)cc3c(=O)[nH]2)C1 (stereo unspecified) [US20240287079, Example 216]",12
8,"Cc1cc(Br)cc(C)c1-n1cc2c(=O)[nH]c(N3CCOC[C@@H]3C)nc2n1 [US20240287079, Example 223]",160
9,"Cc1cc(Br)cc(C)c1-n1cc2c(=O)[nH]c(N3C[C@@H](C)O[C@@H](C)C3)nc2n1 [US20240287079, Example 224]",80
10,"Cc1cc(Br)cc(C)c1-n1cc2c(=O)[nH]c(N3CCOC4(CC4)C3)nc2n1 [US20240287079, Example 225]",19
11,"Cc1cc(Br)cc(C)c1-n1cc2c(=O)[nH]c(N3C4CCC3CC(F)(F)C4)nc2n1 [US20240287079, Example 238]",110
12,"Cc1cc(Br)cc(C)c1-n1cc2c(=O)[nH]c(N3CC4CCC(C3)C4(F)F)nc2n1 [US20240287079, Example 239]",11
13,"Cc1cc(Br)cc(C)c1-n1cc2c(=O)[nH]c(N3CCC4CC43)nc2n1 (stereo unspecified) [US20240287079, Example 240]",7.1
14,"CNc1nc2nn(-c3c(C)cc(Br)cc3C)cc2c(=O)n1C [US20240287079, Example 247]",260
15,"CCC1COCCN1c1nc2nn(-c3c(C)cc(Br)cc3C)cc2c(=O)[nH]1 (stereo unspecified) [US20240287079, Example 248]",30
16,"Cc1cc(Br)cc(C)c1-n1cc2c(=O)[nH]c(N3CCOC4(COC4)C3)nc2n1 [US20240287079, Example 264]",32
